Measured values reported in the NIST ThermoML archive (doi:10.1016/j.jct.2012.12.001).
“And” between values parts separate entries of the source, which are not always exact repeats. Equal values may be shown once.

Experiment: heat capacity at constant pressure per volume; xn = mol fraction of the nth substance listed
Settings: 101 kPa, Liquid, DSC, x2 = 0.695

CCCCCCCCCCCCCCCCC [heptadecane] + N#Cc1ccccc1
Settings	heat capacity
298.05 K	1856100 J/K/m3
298.14 K	1849900 J/K/m3
298.24 K	1857600 J/K/m3
298.34 K	1869500 J/K/m3
298.44 K	1867300 J/K/m3 and 1868100 J/K/m3
298.54 K	1868700 J/K/m3
298.63 K	1857900 J/K/m3
298.73 K	1860800 J/K/m3
298.83 K	1865800 J/K/m3
298.93 K	1874400 J/K/m3
299.02 K	1881300 J/K/m3
299.12 K	1876400 J/K/m3
299.22 K	1870300 J/K/m3
299.32 K	1856400 J/K/m3 and 1858200 J/K/m3
299.42 K	1872800 J/K/m3
299.52 K	1876300 J/K/m3
299.61 K	1873800 J/K/m3
299.71 K	1875400 J/K/m3
299.81 K	1870400 J/K/m3
299.91 K	1865300 J/K/m3
300 K	1870300 J/K/m3
300.1 K	1879700 J/K/m3
300.2 K	1876100 J/K/m3
300.3 K	1884400 J/K/m3
300.4 K	1880100 J/K/m3
300.49 K	1877500 J/K/m3
300.59 K	1873500 J/K/m3
300.69 K	1871300 J/K/m3
300.79 K	1885700 J/K/m3 and 1882900 J/K/m3
300.89 K	1883300 J/K/m3
300.98 K	1885200 J/K/m3
301.08 K	1880800 J/K/m3
301.18 K	1881200 J/K/m3
301.28 K	1861100 J/K/m3
301.37 K	1877300 J/K/m3
301.47 K	1892900 J/K/m3
301.57 K	1896800 J/K/m3
301.67 K	1885900 J/K/m3 and 1887800 J/K/m3
301.77 K	1883300 J/K/m3
301.87 K	1884700 J/K/m3
301.96 K	1888400 J/K/m3
302.06 K	1899800 J/K/m3
302.16 K	1898500 J/K/m3
302.26 K	1888500 J/K/m3
302.35 K	1894400 J/K/m3
302.45 K	1890300 J/K/m3
302.55 K	1891200 J/K/m3
302.65 K	1899800 J/K/m3 and 1900100 J/K/m3
302.75 K	1891400 J/K/m3
302.85 K	1889600 J/K/m3
302.95 K	1885100 J/K/m3
303.15 K	1906400 J/K/m3
303.35 K	1896200 J/K/m3
303.45 K	1894500 J/K/m3
303.55 K	1902400 J/K/m3
303.65 K	1898100 J/K/m3
303.75 K	1898100 J/K/m3
303.85 K	1893900 J/K/m3
304.05 K	1908600 J/K/m3
304.15 K	1904800 J/K/m3
304.25 K	1897700 J/K/m3 and 1899000 J/K/m3
304.35 K	1888500 J/K/m3 and 1889600 J/K/m3
304.45 K	1900600 J/K/m3
304.55 K	1901500 J/K/m3
304.65 K	1903900 J/K/m3
304.75 K	1894400 J/K/m3
304.85 K	1881800 J/K/m3
304.95 K	1915800 J/K/m3
305.05 K	1912200 J/K/m3
305.15 K	1901900 J/K/m3
305.25 K	1924700 J/K/m3
305.35 K	1907800 J/K/m3
305.45 K	1925500 J/K/m3
305.55 K	1943100 J/K/m3
305.65 K	1963900 J/K/m3
305.75 K	1942400 J/K/m3
305.85 K	1924200 J/K/m3
305.95 K	1983400 J/K/m3
306.05 K	1910400 J/K/m3
306.15 K	2011200 J/K/m3
306.25 K	1898300 J/K/m3
306.35 K	2003200 J/K/m3
306.45 K	1935800 J/K/m3
306.55 K	2021100 J/K/m3
306.65 K	1945600 J/K/m3
306.75 K	2006800 J/K/m3
306.85 K	1978000 J/K/m3
307.05 K	2038400 J/K/m3
307.15 K	2126900 J/K/m3
307.25 K	1846500 J/K/m3
307.35 K	1804900 J/K/m3
307.45 K	1791700 J/K/m3
307.55 K	1787300 J/K/m3
307.65 K	1779800 J/K/m3
307.75 K	1775700 J/K/m3
307.85 K	1767300 J/K/m3
307.95 K	1764000 J/K/m3
308.05 K	1758800 J/K/m3
308.15 K	1759200 J/K/m3
308.23 K	1750200 J/K/m3
308.35 K	1756500 J/K/m3
308.45 K	1756400 J/K/m3
308.55 K	1753500 J/K/m3
308.65 K	1748300 J/K/m3
308.75 K	1746500 J/K/m3
308.85 K	1745200 J/K/m3
308.95 K	1748100 J/K/m3
309.05 K	1747000 J/K/m3
309.14 K	1747900 J/K/m3
309.25 K	1743700 J/K/m3
309.35 K	1742200 J/K/m3
309.45 K	1738100 J/K/m3
309.55 K	1735200 J/K/m3
309.65 K	1738100 J/K/m3
309.75 K	1736500 J/K/m3
309.85 K	1737600 J/K/m3
309.95 K	1740400 J/K/m3
310.05 K	1736900 J/K/m3
310.15 K	1731900 J/K/m3
310.25 K	1735000 J/K/m3
310.35 K	1732200 J/K/m3
310.45 K	1727800 J/K/m3
310.55 K	1733700 J/K/m3
310.65 K	1733500 J/K/m3
310.75 K	1728600 J/K/m3
310.85 K	1733600 J/K/m3
310.95 K	1730900 J/K/m3
311 K	1732600 J/K/m3
311.1 K	1732200 J/K/m3
311.2 K	1728000 J/K/m3
311.3 K	1725400 J/K/m3
311.4 K	1724600 J/K/m3
311.5 K	1725800 J/K/m3
311.6 K	1729500 J/K/m3
311.7 K	1732300 J/K/m3
311.8 K	1728700 J/K/m3
311.9 K	1728100 J/K/m3
312 K	1725500 J/K/m3
312.1 K	1723400 J/K/m3
312.2 K	1722200 J/K/m3
312.3 K	1721300 J/K/m3
312.4 K	1724000 J/K/m3
312.5 K	1727600 J/K/m3
312.6 K	1725700 J/K/m3
312.7 K	1727300 J/K/m3
312.8 K	1722600 J/K/m3
312.9 K	1722100 J/K/m3
313 K	1720300 J/K/m3
313.1 K	1719600 J/K/m3
313.2 K	1723400 J/K/m3
313.3 K	1724400 J/K/m3
313.4 K	1725500 J/K/m3
313.5 K	1720500 J/K/m3
313.6 K	1717000 J/K/m3
313.7 K	1718300 J/K/m3
313.8 K	1719300 J/K/m3
313.9 K	1720600 J/K/m3
314 K	1725600 J/K/m3
314.1 K	1722200 J/K/m3
314.2 K	1723200 J/K/m3
314.3 K	1718000 J/K/m3
314.4 K	1717600 J/K/m3
314.5 K	1721100 J/K/m3
314.6 K	1727600 J/K/m3
314.7 K	1722500 J/K/m3
314.8 K	1716700 J/K/m3
314.9 K	1717900 J/K/m3
315 K	1715800 J/K/m3
315.1 K	1719700 J/K/m3
315.2 K	1722400 J/K/m3
315.3 K	1721800 J/K/m3
315.4 K	1717200 J/K/m3
315.5 K	1714900 J/K/m3
315.6 K	1718500 J/K/m3
315.7 K	1724700 J/K/m3
315.8 K	1719600 J/K/m3
315.9 K	1715500 J/K/m3
316 K	1715800 J/K/m3
316.1 K	1715600 J/K/m3
316.2 K	1721400 J/K/m3
316.3 K	1718600 J/K/m3
316.4 K	1718400 J/K/m3
316.5 K	1717700 J/K/m3
316.6 K	1724000 J/K/m3
316.7 K	1724400 J/K/m3
316.8 K	1719200 J/K/m3
317.16 K	1722200 J/K/m3
317.2 K	1722100 J/K/m3
317.31 K	1721500 J/K/m3
317.4 K	1721700 J/K/m3
317.5 K	1722100 J/K/m3
317.6 K	1721900 J/K/m3
317.7 K	1721900 J/K/m3
317.8 K	1721800 J/K/m3
317.9 K	1721500 J/K/m3
318 K	1721300 J/K/m3
318.1 K	1721300 J/K/m3
318.2 K	1721200 J/K/m3
318.3 K	1721100 J/K/m3
318.41 K	1721000 J/K/m3
318.5 K	1721100 J/K/m3
318.6 K	1721300 J/K/m3
318.7 K	1721400 J/K/m3
318.8 K	1721400 J/K/m3
318.9 K	1721100 J/K/m3
